Results on nine molecules are retold here after US10442804B2, “Compounds for the treatment of hepatitis B virus infection” (Gilead Sciences, Inc., priority 2017, dated 2019).

For data set [1], the system named is HBV-infected NTCP-HepG2 cells, secreted HBsAg. Nature of the data set: microbe, parasite or virus in culture. The settings on record: Hepatitis B virus, 120 h, secreted HBsAg in supernatant after 5 days; geometric mean of minimum four determinations; read-out: NTCP HBsAg EC50. It is filed as cell-based, hepatitis B virus (genotype D, AD38-derived). The procedure, abridged:
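NTCP-HepG2 cells were infected with genotype D HBV at 4000 genome equivalents/cell, then seeded 4 days post-infection with serially diluted compounds (1% DMSO) for 5 days. Supernatant HBsAg was measured by chemiluminescent MSD immunoassay. EC50 from four-parameter fit, geometric mean of ≥4 determinations.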

The nature of a further data set: MT-4 cytotoxicity assay. As to conditions: human, five days, Cell Titer Glo luminescence; read-out: MT-4 CC50. Type of data set: cell-based, human. (In general: In ATP-based viability assays light output follows the ATP content of the culture.)

One may read the EC50 as the concentration giving half of the maximal effect. Usually CC50 stands for the concentration giving 50% cytotoxicity. As to `COCCCOc1cc2c(cc1Cl)-c1cc(=O)c(C(=O)O)cn1N1CCCC21` (stereo not drawn) [Example 1, 11-chloro-12-(3-methoxypropoxy)-8-oxo-2,3,8,13b-tetrahydro-1H-pyrido[2,1-a]pyrrolo[1,2-c]phthalazine-7-carboxylic acid], the 50% effective concentration (EC50) in data set [1] turned out to be 90 nM. The CC50 at 5 days in “MT-4 cytotoxicity assay” came out at 8000 nM.

In the case of `CC1(C)CC[C@@H]2c3cc(OCC45CC(C#N)(C4)C5)c(OC(F)F)cc3-c3cc(=O)c(C(=O)O)cn3N21` [Example 104, (R)-12-((3-cyanobicyclo[1.1.1]pentan-1-yl)methoxy)-11-(difluoromethoxy)-3,3-dimethyl-8-oxo-2,3,8,13b-tetrahydro-1H-pyrido[2,1-a]pyrrolo[1,2-c]phthalazine-7-carboxylic acid], in data set [1], the EC50 is 2.7 nM. In addition, in “MT-4 cytotoxicity assay”, the CC50 at 5 days is over 10000 nM.

Take `COc1cc2c(cc1OCCCOC(C)(C)C)[C@H]1CCC(C)(C)N1n1cc(C(=O)O)c(=O)cc1-2` [Example 65, (R)-12-(3-(tert-butoxy)propoxy)-11-methoxy-3,3-dimethyl-8-oxo-2,3,8,13b-tetrahydro-1H-pyrido[2,1-a]pyrrolo[1,2-c]phthalazine-7-carboxylic acid]: the EC50 in data set [1] is 0.41 nM. In addition, in “MT-4 cytotoxicity assay”, the CC50 at 5 days was over 10000 nM.

Consider `COCc1cc2c(cc1OCC1(COC)CC1)[C@H]1CCC(C)(C)N1n1cc(C(=O)O)c(=O)cc1-2` [Compound 109, (R)-11-(methoxymethyl)-12-((1-(methoxymethyl)cyclopropyl)methoxy)-3,3-dimethyl-8-oxo-2,3,8,13b-tetrahydro-1H-pyrido[2,1-a]pyrrolo[1,2-c]phthalazine-7-carboxylic acid], for which, in data set [1], the EC50 is 13.2 nM. In addition, in “MT-4 cytotoxicity assay”, the CC50 at 5 days was over 10000 nM.

For `[2H]C([2H])(OC)C([2H])([2H])C([2H])([2H])Oc1cc2c(cc1COC)-c1cc(=O)c(C(=O)O)cn1N1[C@@H]2CCC1(C)C` [Compound 118, (R)-11-(methoxymethyl)-12-(3-methoxypropoxy-1,1,2,2,3,3-d6)-3,3-dimethyl-8-oxo-2,3,8,13b-tetrahydro-1H-pyrido[2,1-a]pyrrolo[1,2-c]phthalazine-7-carboxylic acid], in data set [1], the 50% effective concentration (EC50) is 4.1 nM. The CC50 at 5 days in “MT-4 cytotoxicity assay” is over 10000 nM.

With `COC(C)(C)C#Cc1cc2c(cc1C1CC1)-c1cc(=O)c(C(=O)O)cn1N1[C@@H]2CCC1(C)C` [Example 72, (R)-11-cyclopropyl-12-(3-methoxy-3-methylbut-1-yn-1-yl)-3,3-dimethyl-8-oxo-2,3,8,13b-tetrahydro-1H-pyrido[2,1-a]pyrrolo[1,2-c]phthalazine-7-carboxylic acid], in data set [1], the EC50 turned out to be 0.95 nM. Besides, the CC50 at 5 days in the data set “MT-4 cytotoxicity assay” stood at 6400 nM.

Regarding `COc1cc2c(cc1C#CC(C)(C)S(C)(=O)=O)[C@H]1CCC(C)(C)N1n1cc(C(=O)O)c(=O)cc1-2` [Example 83, (R)-11-methoxy-3,3-dimethyl-12-(3-methyl-3-(methylsulfonyl)but-1-yn-1-yl)-8-oxo-2,3,8,13b-tetrahydro-1H-pyrido[2,1-a]pyrrolo[1,2-c]phthalazine-7-carboxylic acid], the EC50 in data set [1] is 9.6 nM. Moreover, in the data set “MT-4 cytotoxicity assay”, the CC50 at 5 days was over 10000 nM.

As to `COCCCOc1cc2c(cc1Cl)-c1cc(=O)c(C(=O)O)cn1N1[C@H](C)CC[C@@H]21` (single isomer, unassigned) [Example 9], in data set [1], the EC50 was 45 nM. The CC50 at 5 days in the data set “MT-4 cytotoxicity assay” is over 10000 nM.

As for `CC1(C)CC[C@@H]2c3cc(OCC45CC(C#N)(C4)C5)c(OC(F)(F)F)cc3-c3cc(=O)c(C(=O)O)cn3N21` [Example 92, (R)-12-((3-cyanobicyclo[1.1.1]pentan-1-yl)methoxy)-3,3-dimethyl-8-oxo-11-(trifluoromethoxy)-2,3,8,13b-tetrahydro-1H-pyrido[2,1-a]pyrrolo[1,2-c]phthalazine-7-carboxylic acid], the concentration for a half-maximal effect (EC50) in data set [1] was found to be 3 nM. For the same molecule, in the data set “MT-4 cytotoxicity assay”, the CC50 at 5 days worked out at 8100 nM.
